The values below come from patent US5221675A, “Aza-spirocyclic compounds that enhance cholinergic neurotransmission” (Abbott Laboratories, priority 1991, dated 1993).

The conditions of data set [1]: in vivo; cited from earlier work.
Data set [2] has as its system Rat striatal muscarinic receptors. Description: Agonist intrinsic activity: inhibition of forskolin-activated [3H]cAMP in dissociated rat striatum. The following applies: selective muscarinic antagonist. Type of data set: cell-based.
Excerpt: Rat striatal muscarinic receptors are coupled to the inhibition of the conversion of adenosine triphosphate (ATP) to cyclic adenosine monophosphate (cAMP). […] The ATP stores in dissociated rat striatum were labeled with [^3 H]adenine and [^3 H]-cAMP levels were elevated with 10 um forskolin.
The next data set relates to male Sprague-Dawley rats. Kind of data set: Mean arterial pressure, resting CBF and basal forebrain-elicited cortical CBF (laser-Doppler flowmetry). Type of data set: in vivo, rat. The method, then: General Surgery for CBF Measurement--Methods for surgical preparation of rats for electrical stimulation of brain and measurement of rCBF have been previously described (Nakai et al., Am. J. Physiol. 1982, 243:226) and are summarized below.
Studies are conducted on male Sprague-Dawley rats that are maintained in a thermally controlled (26°-27° C.) light-cycled (07.00 hour on-019.00 hour off) environment, fed standard rat chow and given water ad libitum. Anesthesia is induced with halothane (3.5%; balance 02) delivered through a nose mask and maintained at 2% during the initial surgery. Thin-wall vinyl catheters (o.d.=0.03 inch) are placed in each femoral artery and vein, and the trachea is cannulated.
Animals are subsequently co-anesthetized with urethane (1.5 g/kg, s.c.) and placed in a stereotaxic frame with the head positioned so that the floor of the IVth ventricle was horizontal (incisor bar position: -11 mm.). After connecting the tracheal cannula to a small-animal respirator, the animals are paralyzed with d-tubocurarine (0.6 mg/kg/h, i.m.), and ventilated (80 cpm) with 100% 02. Arterial pressure (AP) and heart rate (HR) are continuously monitored through one of the arterial catheters connected to a Statham P23Db transducer that is coupled to a chart recorder. The level of anesthesia during surgery or subsequent experimental testing is assessed by the AP response to tail pinch, with increasing levels of arousal giving rise to irregular AP readings. Booster doses of urethane (250 mg/kg, s.c.) are given as needed.
Bilateral craniotomies (approximately 4 mm×11 mm) are performed overlying the frontoparietal cortices taking care to leave the dura intact. Halothane is delivered at a reduced rate of 1% during cranial surgery and discontinued afterward. A small volume (about 0.2 ml) of arterial blood is sampled after completion of all surgery for measurement of PO2, PCO2 and pH by a blood gas analyzer. Arterial blood gases are maintained so that PO2 was greater than 100 mm Hg, PCO2 =33-38 mm Hg, and pH=7.35-7.45. Maintaining these values is accomplished by adjusting the stroke volume of the ventilator. Once appropriate physiological parameters are obtained (approximately 30 min), the experimental protocol is initiated.
Electrical Stimulation of the Basal Forebrain (BF)--The BF is stimulated with cathodal current delivered through a stainless steel concentric bipolar electrode ([…]) made by Rhodes Medical Instruments (Model SNEX-100). Electrical pulses are generated by a square wave stimulator (Grass, Model S-88) and constant current is passed through a photoelectric stimulus-isolation unit (Grass, Model PSIU6). The stimulus current is measured on an oscilloscope by continuously displaying the voltage drop across a 10-ohm resistor.
The procedure for eliciting an increased cortical CBF response requires the stereotaxic placement of the stimulating electrode into the BF. For positioning, the electrode is inclined posteriorly to 18 degrees, and the stereotaxic coordinates used were 5.0 mm posterior to, and 2.6 mm lateral to bregma (stereotaxic zero reference point). […] These parameters have been shown previously to elicit maximal increases in cortical CBF (Arneric, Excerpta Medica International Congress Series, Vol. 869:381, 1989). The region of the BF that selectively affects cortical CBF is restricted, with electrode movements of 0.5 mm dorsal or ventral to this site eliciting potent vasodepressor responses in addition to the increases in CBF. […] When CBF increases of approximately 100% or greater are repeatedly obtained in the absence of significant changes in AP (<10 mm Hg) or HR (<10 beats/min.), and when the perfusion rate is stable in the absence of BF stimulation, the experimental testing is started.
CBF Measurement with Laser--Dopler Flowmetry (LDF)--The principles and technical aspects of LDF are presented in detail elsewhere (Bonner et al., Appl. Opt. 1981, 20:2097; Stern et al., Am. J. Physiol. 1977, 232:H441). […]

Data set [3] has as its target neuronal nicotinic cholinergic receptor. Description: [3H]-MCC binding to nicotinic receptors in whole rat brain membranes. The following applies: for Ki: Table 3, [3H]-MCC, rat brain membranes, 4° C., read-out: Nic Ki (binding to the nicotinic receptor); for Nic % Enhancement @ Max. Effect: at 0.0001 (mM) as printed; for Nic Conc. @ Max. Effect: concentration giving maximal enhancement of [3H]-MCC binding; for Affinity for M1/M2 muscarinic and nicotinic neuronal binding sites: muscarinic (M1 or M2) and nicotinic; for Affinity for M1/M2 muscarinic and nicotinic neuronal binding sites / Binding of other nicotinic ligands to the neuronal nicotinic receptor: words. The procedure:
Binding of [^3 H]methylcarbamylcholine ([^3 H]-MCC) to nicotinic receptors is accomplished using crude synaptic membranes prepared from whole rat brain (Snyder and Enna, Brain Res. 1975, 100:81). Washed membranes are stored at -80° C. prior to use. Frozen aliquots are slowly thawed and resuspended in 20 volumes of buffer (containing: 120 mM NaCl, 5 mM KCl, 2 mM MgCl2, 2 mM CaCl2, and 50 mM Tris-Cl, pH 7.4 @4° C.). After centrifuging at 20K×9 for 15 minutes, the pellets are resuspended in 30 volumes of buffer. Homogenate ([…]) is added to triplicate tubes containing concentrations of test compound and [^3 H]-MCC (3 nM) in a final volume of […]. Samples are incubated for 60 minutes at 4° C., then rapidly filtered through Whatman GF/B filters presoaked in 0.5% polyethylimine using 3×4 ml of ice-cold buffer. The filters are counted in 4 mL of Ecolume (ICN). Nonspecific binding is determined in the presence of 10 […] and values were expressed as a percentage of total binding. IC50 values are determined with the ALLFIT curve-fitting program and IC50 values are converted to Ki values using the Cheng and Prusoff correction, (Ki=IC50 /(1+[ligand]/Kd ligand). Alternatively, data are expressed as a percentage of the total specific binding.

The target in a further data set is M2 muscarinic receptor (Rattus norvegicus, UniProt P10980). Type of data set: binding. To be noted: read-out: M2 Ki; Table 3.
For another data set, the target named is T1, M1 muscarinic receptor (Rattus norvegicus, UniProt P08482).
T1 construct: from tissue; host or cells: adult rat fronto-parietal cortex membranes (homogenate)
T1 sequence (P08482 1-460): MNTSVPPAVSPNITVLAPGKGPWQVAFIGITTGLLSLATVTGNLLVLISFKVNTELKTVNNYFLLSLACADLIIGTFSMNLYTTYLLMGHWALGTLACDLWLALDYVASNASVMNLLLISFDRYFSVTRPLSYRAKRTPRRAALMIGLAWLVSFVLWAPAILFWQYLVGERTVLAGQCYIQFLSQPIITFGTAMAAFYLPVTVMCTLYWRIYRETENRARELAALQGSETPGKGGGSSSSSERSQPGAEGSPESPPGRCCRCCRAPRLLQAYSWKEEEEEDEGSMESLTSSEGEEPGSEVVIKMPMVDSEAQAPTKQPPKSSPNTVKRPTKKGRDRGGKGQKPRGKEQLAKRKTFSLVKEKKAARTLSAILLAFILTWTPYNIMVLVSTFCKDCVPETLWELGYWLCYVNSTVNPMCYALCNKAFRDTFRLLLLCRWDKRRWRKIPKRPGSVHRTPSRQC
Kind of data set: Competition with [3H]pirenzepine at cortical M1 muscarinic receptors. Format: binding. To be noted: Table 3; read-out: M1 Ki.

The mark [4] stands for this setting: 0.01 mg/kg, iv, mean of three experiments.

Sequence of M2 muscarinic receptor (P10980 whole entry): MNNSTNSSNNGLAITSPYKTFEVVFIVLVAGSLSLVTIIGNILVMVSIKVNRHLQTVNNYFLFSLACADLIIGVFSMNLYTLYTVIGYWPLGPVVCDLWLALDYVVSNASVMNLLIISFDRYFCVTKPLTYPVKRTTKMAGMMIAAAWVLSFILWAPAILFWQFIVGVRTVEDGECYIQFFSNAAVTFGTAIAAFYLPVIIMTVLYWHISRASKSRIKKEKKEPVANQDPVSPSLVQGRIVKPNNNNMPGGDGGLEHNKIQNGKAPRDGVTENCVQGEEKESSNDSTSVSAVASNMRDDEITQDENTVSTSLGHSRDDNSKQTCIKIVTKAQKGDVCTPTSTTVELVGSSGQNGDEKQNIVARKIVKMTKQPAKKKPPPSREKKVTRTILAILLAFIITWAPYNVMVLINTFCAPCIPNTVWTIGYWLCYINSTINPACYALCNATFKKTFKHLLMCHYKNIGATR

In the case of `COC(=O)C1=CCCN(C)C1` [arecoline], in data set [1], the Pharmacokinetics entry was “unfavorable pharmacokinetics”.

Consider `CN1[C@@H]2CC[C@H]1C[C@@H](OC(=O)C(CO)c1ccccc1)C2` (some centres unmarked) [atropine, reference compound], for which, in data set [2], the “Blockade of all agonist responses” value is recorded as “fully blocked”.

Usually Ki stands for the dissociation constant of the complex between target and ligand, obtained from inhibition or displacement. Regarding `CN1C(=O)N(c2ccccc2)C2(CCNCC2)C1=O.Cl` [Example 3, 3-Methyl-1-phenyl-1,3,8-triazaspiro[4,5]decane-2,4-dione hydrochloride], in the data set on male Sprague-Dawley rats (setting [4]), the “BF-Elicited CBF Response, % Change from Pre-Drug CONTROL” value is “+39%”; the “MAP, % Change from Pre-Drug CONTROL” value is reported as “+5%”; the “Resting CBF, % Change from Pre-Drug CONTROL” value was “+23%”. In addition, in the data set with male Sprague-Dawley rats (0.01-10.0 mg/kg iv), the “Effects on MAP” value is “No remarkable effects on MAP”. For the same compound, the “Effects on blood pressure” value in the data set with male Sprague-Dawley rats (iv) is “no overt effects on blood pressure”. In the data set on male Sprague-Dawley rats (low concentrations, iv, words), the “Resting CBF and BF-elicited CBF response” value is “effective in enhancing resting CBF and the BF-elicited CBF response”. Moreover, in data set [3], the inhibition constant Ki is over 100 µM; the “Nic % Enhancement @ Max. Effect” value is recorded as “+42%”; the “Nic Conc. @ Max. Effect” value came to 0.0001 mM; the “Affinity for M1/M2 muscarinic and nicotinic neuronal binding sites” value was “little affinity”. The “Binding of other nicotinic ligands to the neuronal nicotinic receptor” value in data set [3] was “potently enhance the binding of other nicotinic ligands”. Besides, the inhibition constant Ki on M2 muscarinic receptor was over 100 µM. Further, the Ki on M1 muscarinic receptor was over 100 µM.

As for `C[N+](C)(C)CCOC(N)=O` [carbachol], the CNS penetration entry in data set [1] is reported as “poor CNS penetration”.

In the case of `CN1CCC2(CC1)C(=O)N(C)C(=O)N2c1ccccc1` [Example 4, 3,8-Dimethyl-1-phenyl-1,3,8-triazaspiro[4,5]decane-2,4-dione], in data set [3], the Ki was over 100 µM; the “Nic % Enhancement @ Max. Effect” value is listed as “+33%”; the “Nic Conc. @ Max. Effect” value is given as 0.0001 mM; the “Affinity for M1/M2 muscarinic and nicotinic neuronal binding sites” value was “little affinity”. In addition, the “Binding of other nicotinic ligands to the neuronal nicotinic receptor” value in data set [3] was “potently enhance the binding of other nicotinic ligands”. The Ki on M2 muscarinic receptor was over 100 µM. Besides, on M1 muscarinic receptor, the Ki came out at 28 µM.
